Experimental data reported in ChEMBL document CHEMBL1201862, “PubChem BioAssay data set” (2004).
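These data come from cells grown in 96-well plates and exposed to compound for 48 hours at five concentrations. GI50: concentration for 50% inhibition of growth.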 Activity calls are given as the source filed them. No stated cut-off is given here; in the data, active = GI50 up to about 1.1 µM and inactive = higher.

Experiments:
Experiment in all cases: inhibition of tumour cell growth, NCI panel, 48 h
[1] = system: UO-31
[2] = system: LOX IMVI
[3] = system: 786-0
[4] = system: U-251
[5] = system: SF-268
[6] = system: SF-539
[7] = system: SK-OV-3
[8] = system: SNB-75
[9] = system: OVCAR-3
[10] = system: RXF 393
[11] = system: UACC-257
[12] = system: MDA-N
[13] = system: ACHN
[14] = system: A549
[15] = system: SW-620
[16] = system: MDA-MB-231
[17] = system: Hs-578T
[18] = system: KM12
[19] = system: HOP-62
[20] = system: COLO 205
[21] = system: MCF7
[22] = system: HCT-15
[23] = system: SK-MEL-5
[24] = system: SF-295
[25] = system: PC-3
[26] = system: OVCAR-4
[27] = system: A498
[28] = system: DU-145
[29] = system: BT-549
[30] = system: SR
[31] = system: K562
[32] = system: HCC 2998
[33] = system: M14
[34] = system: HCT-116
[35] = system: NCI/ADR-RES
[36] = system: CAKI-1
[37] = system: MDA-MB-435
[38] = system: SK-MEL-2
[39] = system: OVCAR-8
[40] = system: CCRF-CEM
[41] = system: NCI-H460
[42] = system: Malme-3M
[43] = system: NCI-H23
[44] = system: RPMI-8226
[45] = system: SN12C
[46] = system: IGROV-1
[47] = system: NCI-H226
[48] = system: SK-MEL-28
[49] = system: HOP-92
[50] = system: SNB-19
[51] = system: MOLT-4
[52] = system: T47D
[53] = system: TK-10
[54] = system: UACC-62
[55] = system: NCI-H522
[56] = system: EKVX
[57] = system: OVCAR-5
[58] = system: HT-29

With `Fc1ccc(C(OCCN2CCC3CCC(C2)N3C/C=C/c2ccco2)c2ccc(F)cc2)cc1` (stereo unspecified) the GI50 [1] was 15.1 µM (inactive), the GI50 [2] was 11.2 µM (inactive) and the GI50 [3] was 9.4 µM (inactive). For the same molecule, the GI50 [4] was 8.59 µM (inactive), the GI50 [5] was 12.5 µM (inactive) and the GI50 [6] was 14.1 µM (inactive). The GI50 [7] was 14.6 µM (inactive), the GI50 [8] was 15.1 µM (inactive) and the GI50 [9] was 11.4 µM (inactive). The GI50 [10] was 4.4 µM (inactive), the GI50 [11] was 4.44 µM (inactive) and the GI50 [12] was 12.4 µM (inactive). For the same molecule, the GI50 [13] was 12.7 µM (inactive), the GI50 [14] was 12.5 µM (inactive) and the GI50 [15] was 7.96 µM (inactive). The GI50 [16] was 11.1 µM (inactive), the GI50 [17] was 14.7 µM (inactive) and the GI50 [18] was 9.1 µM (inactive). The GI50 [19] was 16.2 µM (inactive), the GI50 [20] was 1.69 µM (inactive) and the GI50 [21] was 10.2 µM (inactive). For the same molecule, the GI50 [22] was 5.09 µM, the GI50 [23] was 4.22 µM (inactive) and the GI50 [24] was 13 µM (inactive). For the same molecule, the GI50 [25] was 8.2 µM (inactive), the GI50 [26] was 10.2 µM (inactive) and the GI50 [27] was 11.2 µM (inactive). For the same molecule, the GI50 [28] was 15.7 µM (inactive), the GI50 [29] was 12.8 µM (inactive) and the GI50 [30] was 2.47 µM (inactive). For the same molecule, the GI50 [31] was 3.21 µM (inactive), the GI50 [32] was 4.94 µM (inactive) and the GI50 [33] was 5.5 µM (inactive). For the same molecule, the GI50 [34] was 4.91 µM (inactive), the GI50 [35] was 7.4 µM (inactive) and the GI50 [36] was 12.8 µM (inactive). For the same molecule, the GI50 [37] was 10.7 µM (inactive), the GI50 [38] was 12.3 µM (inactive) and the GI50 [39] was 5.83 µM (inactive). For the same molecule, the GI50 [40] was 0.0459 µM (active), the GI50 [41] was 7.11 µM (inactive) and the GI50 [42] was 9.57 µM (inactive). The GI50 [43] was 11.3 µM (inactive), the GI50 [44] was 4.2 µM (inactive) and the GI50 [45] was 11.4 µM (inactive). The GI50 [46] was 6.5 µM (inactive), the GI50 [47] was 13.2 µM (inactive) and the GI50 [48] was 6.46 µM (inactive). The GI50 [49] was 4.62 µM (inactive), the GI50 [50] was 15.7 µM (inactive) and the GI50 [51] was 4.78 µM (inactive). For the same molecule, the GI50 [52] was 5.14 µM (inactive), the GI50 [53] was 6.93 µM (inactive) and the GI50 [54] was 13.8 µM (inactive). The GI50 [55] was 7.23 µM (inactive).
In the case of `S=C(N/N=C\c1ccccn1)N(Cc1ccccn1)Cc1ccccn1`, the GI50 [1] was 1.26 µM (inactive), the GI50 [2] was 0.646 µM (active) and the GI50 [3] was 0.697 µM (active). The GI50 [4] was 0.195 µM (active), the GI50 [5] was 0.431 µM (active) and the GI50 [6] was 4.68 µM (inactive). The GI50 [7] was 2.04 µM (inactive), the GI50 [8] was 5.43 µM (inactive) and the GI50 [9] was 1.94 µM (inactive). The GI50 [10] was 10.4 µM (inactive), the GI50 [11] was 4.82 µM (inactive) and the GI50 [12] was 7.55 µM (inactive). For the same molecule, the GI50 [13] was 0.316 µM (active), the GI50 [14] was 2.3 µM (inactive) and the GI50 [15] was 0.333 µM (active). The GI50 [16] was 0.419 µM (active), the GI50 [56] was 0.721 µM (active) and the GI50 [17] was 16 µM (inactive). The GI50 [18] was 1.49 µM (inactive), the GI50 [19] was 2.71 µM (inactive) and the GI50 [21] was 0.111 µM (active). The GI50 [22] was 0.622 µM, the GI50 [23] was 1.07 µM (active) and the GI50 [24] was 1.65 µM (inactive). For the same molecule, the GI50 [25] was 6.89 µM (inactive), the GI50 [26] was 0.91 µM (active) and the GI50 [28] was 2.29 µM (inactive). The GI50 [29] was 1.93 µM (inactive), the GI50 [30] was 1.42 µM (inactive) and the GI50 [57] was 13 µM (inactive). For the same molecule, the GI50 [31] was 0.205 µM (active), the GI50 [32] was 7.03 µM (inactive) and the GI50 [33] was 1.1 µM (active). The GI50 [34] was 0.557 µM (active), the GI50 [35] was 1.19 µM (inactive) and the GI50 [36] was 0.229 µM (active). The GI50 [37] was 4.45 µM (inactive), the GI50 [38] was 11.6 µM (inactive) and the GI50 [39] was 0.367 µM (active). The GI50 [40] was < 0.019 µM (active), the GI50 [41] was 1.11 µM (active) and the GI50 [42] was 1.37 µM (inactive). The GI50 [58] was 0.0822 µM (active), the GI50 [43] was 1.87 µM (inactive) and the GI50 [44] was 1.17 µM (inactive). For the same molecule, the GI50 [45] was 0.34 µM (active), the GI50 [46] was 0.427 µM (active) and the GI50 [47] was < 0.0419 µM (active). The GI50 [48] was 1.22 µM (inactive), the GI50 [49] was 1.32 µM (inactive) and the GI50 [50] was 3.47 µM (inactive). The GI50 [51] was 0.0582 µM (active), the GI50 [52] was 1.46 µM (inactive) and the GI50 [53] was 0.637 µM (active). For the same molecule, the GI50 [54] was 2.08 µM (inactive) and the GI50 [55] was 0.0637 µM (active).
